Measurements as given in patent US20080200442A1, “Compositions and Methods for Treating, Reducing, Ameliorating, or Preventing Infections of the Ear or Upper Respiratory Tract” (priority 2007, published 2008).
Converted amounts (≈) assume the structure as drawn. Read-outs that look alike come from different tables or passages of the source.

Tests used:
Type in all cases: cell-based
[1] = system: Salmonella typhimurium (TD); experiment: In vitro anti-bacterial activity (MIC90), Gram-negative reference strains
Method: Anti-bacterial activity of the compound having Formula III was tested against several Gram-negative reference bacteria strains and compared to the anti-bacterial activity of three commercially available antibiotics (nadifloxacin, ofloxacin, and sparfloxacin).

[2] = system: Bacillis subtilis (ATCC 6633); experiment: In vitro anti-bacterial activity (MIC90), Gram-positive reference strains
Method: (§1) Anti-bacterial activity of the compound having Formula III was tested against several Gram-negative reference bacteria strains and compared to the anti-bacterial activity of three commercially available antibiotics (nadifloxacin, ofloxacin, and sparfloxacin). The results are shown in Table 2 as MIC90 values (minimum concentration of the active compound required to inhibit ninety percent of the growth of a specified pathogen, in μg/ml). Anti-bacterial activity of the compound having Formula III was tested against several Gram-positive reference bacteria strains and compared to the anti-bacterial activity of three commercially available antibiotics (nadifloxacin, ofloxacin, and sparfloxacin).

[3] = system: Sarcina lutea (ATCC 9341); experiment: as above; conditions: Micrococcus luteus, ATCC9341
Method: as §1

[4] = system: Staphylococcus aureus (ATCC 25933); experiment: as above; conditions: ATCC25933
Method: as §1

[5] = system: Staphylococcus aureus (FDA 209P); experiment: as above; conditions: FDA209P
Method: as §1

[6] = system: Staphylococcus aureus (Smith); experiment: as above
Method: as §1

[7] = system: Staphylococcus epidermidis (ATCC 12228); experiment: as above; conditions: ATCC12228
Method: as §1

[8] = system: Streptococcus faecalis (ATCC 29212); experiment: as above; conditions: Enterococcus faecalis, ATCC29212
Method: as §1

[9] = system: Streptococcus faecalis (IFO 12964); experiment: as above; conditions: Enterococcus faecalis, IFO12964
Method: as §1

[10] = system: Streptococcus pneniae (IID 554); experiment: as above; conditions: IID554
Method: as §1

[11] = system: Streptococcus pneumoniae (IID 553); experiment: as above; conditions: IID553
Method: as §1

[12] = system: Streptococcus pyogenes (Cook); experiment: as above
Method: as §1

[13] = system: Streptococcus pyogenes (IID 698); experiment: as above; conditions: IID698
Method: as §1

[14] = system: Staphylococcus aureus (ATCC 33591); experiment: In vitro anti-bacterial activity (MIC90), methicillin-resistant Staphylococcus aureus isolates; conditions: ATCC33591; methicillin-resistant Staphylococcus aureus (ATCC 33591)
Method: (§2) Anti-bacterial activity of the compound having Formula III was tested against several Gram-negative reference bacteria strains and compared to the anti-bacterial activity of three commercially available antibiotics (nadifloxacin, ofloxacin, and sparfloxacin). The results are shown in Table 2 as MIC90 values (minimum concentration of the active compound required to inhibit ninety percent of the growth of a specified pathogen, in μg/ml).
(§3) Anti-bacterial activity of the compound having Formula III was tested against some methicillin-resistant Staphylococcus aureus bacteria strains and compared to the anti-bacterial activity of three commercially available antibiotics (nadifloxacin, ofloxacin, and sparfloxacin).

[15] = system: Staphylococcus aureus (ATCC 33592); experiment: as above; conditions: ATCC33592; methicillin-resistant Staphylococcus aureus (ATCC 33592)
Method: as §2, §3

[16] = system: Staphylococcus aureus (ATCC 33593); experiment: as above; conditions: ATCC33593; methicillin-resistant Staphylococcus aureus (ATCC 33593)
Method: as §2, §3

[17] = system: Staphylococcus aureus (No. 395); experiment: as above; conditions: methicillin-resistant Staphylococcus aureus (No. 395)
Method: as §2, §3

[18] = system: Staphylococcus aureus (No. 415); experiment: as above; conditions: methicillin-resistant Staphylococcus aureus (No. 415)
Method: as §2, §3

[19] = system: Staphylococcus aureus (No. 419); experiment: as above; conditions: methicillin-resistant Staphylococcus aureus (No. 419)
Method: as §2, §3

[20] = system: Staphylococcus aureus (No. 420); experiment: as above; conditions: methicillin-resistant Staphylococcus aureus (No. 420)
Method: as §2, §3

[21] = system: Staphylococcus aureus (No. 421); experiment: as above; conditions: methicillin-resistant Staphylococcus aureus (No. 421)
Method: as §2, §3

[22] = system: Clostridium perfringens (KZ 210); experiment: microbe, parasite or virus in culture
[23] = system: Peptostreptococcus micros (GIFU 7824); experiment: In vitro anti-bacterial activity (MIC90), anaerobic reference bacteria; conditions: Parvimonas micra
[24] = system: Peptostreptococcus magnum (GAI 0664); experiment: as above
[25] = system: Propionibacterium acnes (GAI 5419); experiment: as above; conditions: Cutibacterium acnes
[26] = system: Propionibacterium acnes (ATCC 6919); experiment: as above; conditions: Cutibacterium acnes, ATCC6919
[27] = system: Propionibacterium acnes (ATCC 11828); experiment: as above; conditions: Cutibacterium acnes, ATCC11828
[28] = system: Bacteroides fragillis (GAI 0675); experiment: as above
[29] = system: Bacteroides thetaiotaomicron (GAI 0659); experiment: as above
[30] = system: Bacteroides vulgatus (GAI 0673); experiment: as above; conditions: Phocaeicola vulgatus
[31] = system: Veillonella parvula (GAI 5602); experiment: as above
Moraxella species = experiment: In vitro anti-bacterial activity (MIC90), ophthalmologic clinical bacteria isolates; conditions: Gram-negative
Pseudomonas aeruginosa = experiment: as above; conditions: Gram-negative
Haemophilus influenzae = experiment: as above; conditions: Gram-negative
Staphylococcus aureus = experiment: as above; conditions: Gram-positive
[32] = system: Coagulase-negative Staphylococcus; experiment: as above; conditions: Gram-positive
Streptococcus pneumoniae = experiment: as above; conditions: Gram-positive
Corynebacterium species = experiment: as above; conditions: Gram-positive
Propionibacterium acnes = experiment: as above; conditions: Cutibacterium acnes, Gram-positive
[33] = system: Ofloxacin-resistant Staphylococcus aureus; experiment: as above
[34] = system: Gentamycin-resistant Staphylococcus aureus; experiment: as above
[35] = system: Gentamycin-resistant Pseudomonas aeruginosa; experiment: as above
[36] = system: Penicillin-resistant Streptococcus pneumoniae; experiment: as above

NC1CCCCN(c2c(F)cc3c(=O)c(C(=O)O)cn(C4CC4)c3c2Cl)C1 (centres unmarked) [Compound Having Formula III]
MIC90 [1]: 0.05 mμg/mL | MIC90 [2]: 0.012 µg/mL | MIC90 [3]: 0.1 µg/mL | MIC90 [4]: 0.05 µg/mL | MIC90 [5]: 0.012 µg/mL | MIC90 [6]: 0.006 µg/mL | MIC90 [7]: 0.05 µg/mL | MIC90 [8]: 0.2 µg/mL | MIC90 [9]: 0.1 µg/mL | MIC90 [10]: 0.2 µg/mL | MIC90 [11]: 0.1 µg/mL | MIC90 [12]: 0.1 µg/mL | MIC90 [13]: 0.1 µg/mL | MIC90 [14]: 0.012 µg/mL | MIC90 [15]: 0.05 µg/mL | MIC90 [16]: 0.012 µg/mL | MIC90 [17]: 0.006 µg/mL | MIC90 [18]: 0.05 µg/mL | MIC90 [19]: 0.1 µg/mL | MIC90 [20]: 0.1 µg/mL | MIC90 [21]: 0.2 µg/mL | MIC90 [22]: 0.2 µg/mL | MIC90 [23]: 0.2 µg/mL | MIC90 [24]: 0.05 µg/mL | MIC90 [25]: 0.2 µg/mL | MIC90 [26]: 0.2 µg/mL | MIC90 [27]: 0.39 µg/mL | MIC90 [28]: 0.1 µg/mL | MIC90 ([29]; anaerobic, Bacteroides thetaiotaomicron (GAI 0659), read-out: MIC90): 0.2 µg/mL | MIC90 [30]: 0.1 µg/mL | MIC90 [31]: 0.1 µg/mL | MIC90 (Moraxella species): 0.13 µg/mL | MIC90 (Pseudomonas aeruginosa): 4 µg/mL | MIC90 (Haemophilus influenzae): ≤ 0.06 µg/mL | MIC90 (Staphylococcus aureus): 1 µg/mL | MIC90 [32]: 0.5 µg/mL | MIC90 (Streptococcus pneumoniae): 0.13 µg/mL | MIC90 (Corynebacterium species): 2 µg/mL | MIC90 (Propionibacterium acnes): 0.25 µg/mL | MIC90 [33]: 8 µg/mL | MIC90 [34]: 4 µg/mL | MIC90 [35]: 32 µg/mL | MIC90 [36]: 0.13 µg/mL

CC1CCc2c(N3CCC(O)CC3)c(F)cc3c(=O)c(C(=O)O)cn1c23 (centres unmarked) [Nadifloxacin]
MIC90 [1]: 0.2 mμg/mL | MIC90 [2]: 0.006 µg/mL (≈ 0.0166 µM) | MIC90 [3]: 0.39 µg/mL (≈ 1.08 µM) | MIC90 [4]: 0.05 µg/mL (≈ 0.139 µM) | MIC90 [5]: 0.024 µg/mL (≈ 0.0666 µM) | MIC90 [6]: 0.024 µg/mL (≈ 0.0666 µM) | MIC90 [7]: 0.1 µg/mL (≈ 0.277 µM) | MIC90 [8]: 0.78 µg/mL (≈ 2.16 µM) | MIC90 [9]: 0.78 µg/mL (≈ 2.16 µM) | MIC90 [10]: 0.78 µg/mL (≈ 2.16 µM) | MIC90 [11]: 0.78 µg/mL (≈ 2.16 µM) | MIC90 [12]: 0.78 µg/mL (≈ 2.16 µM) | MIC90 [13]: 0.1 µg/mL (≈ 0.277 µM) | MIC90 [14]: 0.006 µg/mL (≈ 0.0166 µM) | MIC90 [15]: 0.05 µg/mL (≈ 0.139 µM) | MIC90 [16]: 0.024 µg/mL (≈ 0.0666 µM) | MIC90 [17]: 0.024 µg/mL (≈ 0.0666 µM) | MIC90 [18]: 0.1 µg/mL (≈ 0.277 µM) | MIC90 [19]: 0.39 µg/mL (≈ 1.08 µM) | MIC90 [20]: 0.78 µg/mL (≈ 2.16 µM) | MIC90 [21]: 0.78 µg/mL (≈ 2.16 µM) | MIC90 [22]: 0.2 µg/mL (≈ 0.555 µM) | MIC90 [23]: 0.39 µg/mL (≈ 1.08 µM) | MIC90 [24]: 0.2 µg/mL (≈ 0.555 µM) | MIC90 [25]: 0.2 µg/mL (≈ 0.555 µM) | MIC90 [26]: 0.2 µg/mL (≈ 0.555 µM) | MIC90 [27]: 0.78 µg/mL (≈ 2.16 µM) | MIC90 [28]: 1.56 µg/mL (≈ 4.33 µM) | MIC90 ([29]; Bacteroides thetaiotaomicron): 1.56 µg/mL (≈ 4.33 µM) | MIC90 [30]: 0.78 µg/mL (≈ 2.16 µM) | MIC90 [31]: 0.78 µg/mL (≈ 2.16 µM)
